# Experimental data from US4990531A, “Derivatives of 1-arylsulphonyl-2-pyrrolidinone and their use as medicaments” (Roussel Uclaf, priority 1988, dated 1991).
# Legend:
# [1] = target: opiated receptor kappa (Homo sapiens, UniProt P41145); test: Affinity for other receptors: opiated receptor kappa; type: binding; conditions: negligible affinity
# [2] = target: GABA receptor; test: Affinity for other receptors: GABA; type: binding; conditions: negligible affinity
# [3] = tested on: contractions induced by serotonine, isolated ileum; test: Antagonism of serotonine-induced contractions, isolated guinea-pig ileum; conditions: serotonine 1×10^-6 M; contact time one minute; read-out: Antagonism with various agents (IC50): Seroton.
# Method: The interaction of the compounds with various receptors was evaluated on the isolated ileum of a guinea-pig according to the following method.
# Segments of the ileum of guinea-pigs of 2.5-3 cm were washed and immediately suspended in a bath containing 10 ml of Tyrode's solution at 37° C. and aerated with a mixture of oxygen (95%) and carbon dioxide (5%). After a stabilization period of at least 30 minutes contractions were recorded, while the preparation was maintained under constant tension of 1 g, by means of a detector connected to a polygraph. The agonistic action was evaluated by leaving the compound in contact with the isolated tissue for a period necessary to show the maximum […]; then it was washed with the Tyrode's solution. The following dose was added only after the preparation had returned to its base line. Arecoline was used as a reference product. The antagonist action was evaluated on the contractions induced by acetylcholine (1×10^-6 M), histamine (1×10^-5 M), serotonine (1×10^-6 M) and barium chloride (2×10^-4 M). […] The contact time before adding the agonist was one minute.
# For each compound the does response curves are obtained with 4 to 6 different concentrations and 3 to 5 independent tests. The agonist activity is expressed by pD2 (negative logarithm of the dose which produces 50% of the maximum effect).
# [4] = target: benzodiazepine receptor; test: Affinity for other receptors: benzodiazepines; type: binding; conditions: negligible affinity
# [5] = target: Muscarine receptor 2; test: Bonding with cerebral receptors: muscarine receptor 2 (3H quinuclidinyl benzylate, rat brain); type: binding; conditions: 0.3 nM 3H quinuclidinyl benzylate, 60 min, 25° C., pH 7.5; read-out: Affinity for muscarine receptor M2 (/3H/Quinuclidinyl benzylate), IC50
# Method: The preparation is made from the brains of a male rat weighing 150 to 200 g (Iffa Credo).
# The brains are pulverized (Teflon-glass) in a 0.32M solution of sucrose. The homogenate is centrifuged for 10 minutes at 1000 g (0°-4° C.).
# The supernatant obtained is recovered and centrifuged at 30,000 g for 15 minutes (0°-4° C.).
# The deposit is put in suspension in a buffer Tris 50 mM pH 7.5 and the new homogenate is centrifuged again at 30,000 g for 15 minutes (0°-4° C.).
# The deposits after elimination of the supernatant, can be used straight-away or kept for up to one month at -30° C.
# For one experiment the deposits are first of all thawed out, if necessary, to ambient temperature and put in suspension, using a Dounce, in a buffer Tris 50 mM pH 7.5. Aliquots of 2 ml are incubated for 60 minutes at 25° C. in the presence of 0.3 nM of ^3 H quinuclidinyl benzylate either alone, or with the product under test, or with benzatropine at 10^-5 M in order to determine the non-specific radioactivity fixed.
# At the end of the incubation the incubate tubes are cooled to 4° C. and filtered rapidly on Whatman GF/C filters. The filters are rinsed with 3×5 ml of buffer Tris 50 mM pH 7.5, then measurements are made by liquid scintillation [Henry I Yamamura, Solomon H. Snyder, Proc. Nat. Acad. Sc. (1974) 71 No. 5, 1725-1729).
# [6] = target: T1, Muscarine receptor 1 (Rattus norvegicus, UniProt P08482); test: Bonding with cerebral receptors: muscarine receptor 1 (3H pirenzepine, rat cortex); type: binding; conditions: 0.25 nM 3H pirenzepine, 60 min, 25° C., pH 7.4; read-out: Affinity for muscarine receptor M1 (/3H/Pirenzepine), IC50
# T1 construct: prepared from cortex removed from the brains of a male rat; from tissue; host or cells: rat cerebral cortex homogenate (male rat, Iffa Credo)
# T1 sequence (P08482 whole entry): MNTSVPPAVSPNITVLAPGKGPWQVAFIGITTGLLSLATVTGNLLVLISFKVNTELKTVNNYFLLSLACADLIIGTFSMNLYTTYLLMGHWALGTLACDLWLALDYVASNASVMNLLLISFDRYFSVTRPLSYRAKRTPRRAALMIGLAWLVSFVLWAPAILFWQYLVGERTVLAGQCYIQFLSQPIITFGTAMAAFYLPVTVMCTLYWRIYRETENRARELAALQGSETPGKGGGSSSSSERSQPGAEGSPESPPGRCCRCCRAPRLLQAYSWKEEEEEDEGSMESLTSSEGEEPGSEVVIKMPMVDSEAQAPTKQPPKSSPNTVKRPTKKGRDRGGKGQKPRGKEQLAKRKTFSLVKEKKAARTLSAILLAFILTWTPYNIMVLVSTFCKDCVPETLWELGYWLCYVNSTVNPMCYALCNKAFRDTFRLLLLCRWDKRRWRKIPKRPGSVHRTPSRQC
# Method: This is prepared from cortex removed from the brains of a male rat weighing 150 to 200 g, (Iffa Credo) pulverized with Polytron in a buffer Na/K 10 mM pH 7.4. After incubation (aliquots of 0.5 ml of homogenate) for 60 minutes at 25° C. in the presence of 0.25 nM of ^3 H pirenzepine, either alone, or with the product under test, or with an excess of pirenzepine at 10^-5 M (in order to determine the non-specific radioactivity fixed), the incubates are cooled and filtered.
# The filtration is carried out on Whatman GF/C filters prewashed in a solution of polyethylene-imine at 0.05%. The filters are rinsed with 3×5 ml of phosphate Na/K buffer 10 mM pH 7.4, then measurements are made by liquid scintillation.
# opiated receptor kappa, sequence (P41145 whole entry): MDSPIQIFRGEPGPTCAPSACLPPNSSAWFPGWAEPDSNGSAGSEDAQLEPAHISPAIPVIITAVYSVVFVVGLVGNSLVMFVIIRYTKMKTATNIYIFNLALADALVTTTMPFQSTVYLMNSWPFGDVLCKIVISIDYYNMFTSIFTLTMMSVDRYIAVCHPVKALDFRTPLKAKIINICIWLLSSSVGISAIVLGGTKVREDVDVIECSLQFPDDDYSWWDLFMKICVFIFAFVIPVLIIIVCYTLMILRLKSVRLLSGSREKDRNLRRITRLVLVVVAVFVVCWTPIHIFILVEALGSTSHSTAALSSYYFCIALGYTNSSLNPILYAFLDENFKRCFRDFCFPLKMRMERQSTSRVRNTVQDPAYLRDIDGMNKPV
SMILES,IC50 [1] [µM],IC50 [2] [µM],IC50 [3] [µM],IC50 [4] [µM],IC50 [5] [µM],IC50 [6] [µM]
"CCN(CC)c1ccc(S(=O)(=O)N2CCCC2=O)cc1 [Example 2, 1-[4-(diethylamino)benzenesulphonyl]-2-pyrrolidinone]",5 to 10,5 to 10,> 100,5 to 10,1.3,0.098
"CC(C)(C)c1ccc(S(=O)(=O)N2CCCC2=O)cc1 [Example 1, 1-(4-tert-butylbenzenesulphonyl)-2-pyrrolidinone]",5 to 10,5 to 10,> 100,5 to 10,1.3,0.13
